Reference: US12116356B2, “N-heterocyclic five-membered ring-containing capsid protein assembly inhibitor, pharmaceutical composition thereof, and use thereof” (CHIA TAI TIANQING PHARMACEUTICAL GROUP CO., LTD., priority 2018, dated 2024)
pEC50: −log10 of the molar value. In brackets after ≈: the same amount, converted by molar mass.

Key:
[1] = In vitro cytotoxicity (CCK-8) in HepAD38 cells; assay type: cell-based; details: human
Experimental: (§1) A bottle of HepG2.2.15 or HepAD38 cells in good exponential growth state was taken, washed once by adding 5 mL PBS, and then thereto was added 3 mL trypsin. The sample was digested in a cell culture incubator, and taken out from time to time and observed under a microscope. When the cells just fell off, 1 mL trypsin was discarded. The residual liquid was placed in a cell culture incubator at 37° C. and digested for 8-15 min. The cells were taken out and observed under a microscope (whether the cells were individually round and there was no adhesion between the cells). 5 mL MEM medium was added for cell resuspension. The cells were then subjected to cell counting with a cell counter, diluted with a complete medium, and adjusted to a cell density of 2*10^5 cells/mL. Then the cells were seeded at 100 μL/well in a 96-well plate with a multi-channel pipette (the 96-well plate was coated with 50 μg/mL Collagen I solution in advance), and cultured in a constant temperature CO2 incubator for 24 h. The cells were treated by drug administration, and fresh medium containing the compound was used to replace the spent medium every 3 days. To control wells was added a drug-free medium containing 0.5% DMSO, and a control well containing a common medium was set up. 6 days after the administration, CCK-8 was added at 10 μL/well. After 1 to 2 hours, the absorbance was detected with microplate reader at 450 nm, and the inhibition rate and the CC50 were calculated.

[2] = test system: HBV DNA in HepG2.2.15 cells; assay: In vitro cell HBV DNA inhibitory activity (anti-HBV activity) in HepG2.2.15 cells; assay type: cell-based; details: Hepatitis B virus, 144 h; anti-HBV activity in HepG2.2.15 cells, 6 days treatment, intracellular capsid HBV DNA by qPCR; read-out: EC50
Experimental: (§2) A bottle of HepG2.2.15 or HepAD38 cells in good exponential growth state was taken, washed once by adding 5 mL PBS, and then thereto was added 3 mL trypsin. After digesting at room temperature for 5 min, 2 mL trypsin was discarded, and then the sample was placed in a cell culture incubator and digested for 10 min. The cells were taken out from time to time and observed under a microscope (whether the cells were individually round and there was no adhesion between the cells). 10 mL complete medium was added to terminate the digestion. After pipetting into a single cell suspension, 10 μL of the cell suspension was taken out for cell counting with a cell counter, and then diluted with a complete medium and adjusted to a cell density of 1*10^5 cells/mL. Then the cell suspension was seeded at 1 mL/well in a 24-well plate with a multi-channel pipette (the 24-well plate was coated with 50 μg/mL Collagen I solution in advance), and cultured in a constant temperature CO2 incubator for 48 h.
(§3) Different compounds dissolved in DMSO were subjected to two-fold gradient dilution (10 concentrations in total) with complete medium. The compound was added, and fresh medium containing the compound was used to replace the spent medium every 72 hours. The cells were treated with the compound for 6 days. After the supernatant was siphoned off, 300 μL lysate (10 mM Tris-HCl, 1 mM EDTA, and 1% NP-40) was added to each well. After lysing at room temperature for 10 min, DNA was extracted, and HBV DNA in the intracellular viral capsid was measured by real-time fluorescence quantitative PCR. The inhibition rate was calculated based on the Ct value, and the EC50 value was calculated by the four-parameter method.

[3] = Solubility in PBS buffer at pH 7.4; assay type: physicochemical; details: aqueous buffer, PBS buffer pH 7.4, 25° C.
Experimental: […] After standing at 25° C. for 16 hours, the system was centrifugated (12000 rpm, room temperature) for 10 min. 20 μL of the supernatant was taken out, and the reaction was terminated with 400 μL of acetonitrile containing an internal standard (diazepam 20 ng/mL). 30 μL of the supernatant was pipetted, and 150 μL of 50% acetonitrile aqueous solution was added thereto for dilution and mixed uniformly. 0.5 μL of the resulting solution was injected for analysis.

HBV DNA in HepAD38 cells = assay: In vitro cell HBV DNA inhibitory activity (anti-HBV activity) in HepAD38 cells; assay type: cell-based; details: Hepatitis B virus, 144 h; anti-HBV activity in HepAD38 cells, 6 days treatment, intracellular capsid HBV DNA by qPCR; read-out: EC50
Experimental: as §2, §3

[4] = Stability of human liver microsomes in vitro; assay type: in vitro ADME
Experimental: (§4) 300 μL of a final incubation system contains 30 μL of liver microsomes (protein concentration: 0.15 mg/mL), 30 μL NADPH+MgCl2, 3 μL substrate (formulated with acetonitrile), and 237 μL PBS buffer. Duplicate incubation systems of 0.3 mL each were formulated for each species. A total volume of 270 μL of a uniformly mixed solution of the substrate and the enzyme was formulated in each tube, the solution and NADPH were pre-incubated at 37° C. for 5 minutes, respectively. Then 30 μL of the mixed solution of NADPH+MgCl2 was added for reaction. 50 μL of the reaction solution was taken out at 0, 10, 30, and 60 mins, and the reaction was terminated with 300 μL of ice acetonitrile containing an internal standard.
(§5) Sample pre-treatment: To 50 μL of the incubated sample was added 300 μL of ice acetonitrile containing diazepam as an internal standard and then precipitated. After vortexing for 5 minutes, the sample was centrifugated (12000 rpm, 4° C.) for 10 minutes. 75 μL of the supernatant was pipetted into a 96-well plate, and then diluted with 75 μL ultrapure water and mixed uniformly. 0.5 μL of the resulting solution was injected and analyzed by LC-MS/MS.

[5] = Stability of rat liver microsomes in vitro; assay type: in vitro ADME
Experimental: as §4, §5

[6] = Stability of mouse liver microsomes in vitro; assay type: in vitro ADME
Experimental: as §4, §5

[7] = In vitro cytotoxicity (CCK-8) in HepG2.2.15 cells; assay type: cell-based; details: human
Experimental: as §1

SMILES | CC50 at 6 days [1] [nM] | pEC50 [2] | solubility at 16 h [3] [µM] | pEC50 (HBV DNA in HepAD38 cells) | Remaining (%) at 60 min [4] [%] | Remaining (%) at 60 min [5] [%] | Remaining (%) at 60 min [6] [%] | CC50 at 6 days [7] [nM]
Cc1c(C(=O)Nc2ccc(F)c(C#N)c2)c(C)n(C)c1C(=O)C(=O)NC1(C)COC1 [Example 6, N-(3-cyano-4-fluorophenyl)-1,2,4-trimethyl-5-(2-(3-methyloxetan-3-ylamino)-2-oxoacetyl)-1H-pyrrole-3-carboxamide] | > 100000 | 7.30 to 8.00 | 81.8 (≈ 33.7 µg/mL) | 7.30 to 8.00 | 79.1 | 74.9 | 55 | > 100000
Cc1c(C(=O)Nc2ccc(F)c(C#N)c2)c(Cl)n(C)c1C(=O)C(=O)N[C@@H](C)C(F)(F)F [Example 29, (S)-2-chloro-N-(3-cyano-4-fluorophenyl)-1,4-dimethyl-5-(2-oxo-2-((1,1,1-trifluoroprop-2-yl)amino)acetyl)-1H-pyrrole-3-carboxamide] | > 100000 | 7.30 to 8.00 | – | > 8.00 | 99.6 | 88.7 | 99.2 | > 100000
COC(=O)C(C)(C)NC(=O)C(=O)c1c(C)c(C(=O)Nc2ccc(F)c(C#N)c2)c(C)n1C [Example 9, methyl (2-(4-((3-cyano-4-fluorophenyl)carbamoyl)-1,3,5-trimethyl-1H-pyrrole-2-yl)-2-oxoacetylamino)-2-methylpropionate] | > 100000 | 7.30 to 8.00 | 9.6 (≈ 4.25 µg/mL) | > 8.00 | – | – | – | > 100000
Cc1c(C(=O)Nc2ccc(F)c(C#N)c2)c(C)n(C)c1C(=O)C(=O)NC1CCOC1 (centres unmarked) [Example 7, N-(3-cyano-4-fluorophenyl)-1,2,4-trimethyl-5-(2-oxo-2-((tetrahydrofuran-3-yl)amino)acetyl)-1H-pyrrole-3-carboxamide] | > 100000 | 7.30 to 8.00 | 19.8 (≈ 8.17 µg/mL) | > 8.00 | 83.8 | 70.5 | 81.6 | > 100000
Cc1c(C(=O)Nc2ccc(F)c(C#N)c2)c(Cl)n(C)c1C(=O)C(=O)NC(C)(C)C [Example 17, 5-(2-(tert-butylamino)-2-oxoacetyl)-2-chloro-N-(3-cyano-4-fluorophenyl)-1,4-dimethyl-1H-pyrrole-3-carboxamide] | > 100000 | 7.30 to 8.00 | – | – | – | 44.9 | 47.4 | > 100000
Cc1c(C(=O)Nc2ccc(F)c(C#N)c2)c(Br)n(C)c1C(=O)C(=O)NC(C)(C)C [Example 15, 2-bromo-5-(2-(tert-butylamino)-2-oxoacetyl)-N-(3-cyano-4-fluorophenyl)-1,4-dimethyl-1H-pyrrole-3-carboxamide] | > 100000 | 7.30 to 8.00 | 4.9 (≈ 2.27 µg/mL) | > 8.00 | – | – | – | –
Cc1c(C(=O)Nc2ccc(F)c(C#N)c2)c(C)n(C)c1C(=O)C(=O)NC(C)(C)CO [Example 8, N-(3-cyano-4-fluorophenyl)-5-(2-((1-hydroxy-2-methylpropan-2-yl)amino)-2-oxoacetyl)-1,2,4-trimethyl-1H-pyrrole-3-carboxamide] | > 100000 | > 8.00 | 80.9 (≈ 33.5 µg/mL) | > 8.00 | 70.6 | 52.0 | – | > 100000
Cc1c(C(=O)Nc2ccc(F)c(C#N)c2)c(C)n(C)c1C(=O)C(=O)NC1(C)CS(=O)(=O)C1 [Example 45, N-(3-cyano-4-fluorophenyl)-1,2,4-trimethyl-5-(2-((3-methyl-1,1-dioxidothietan-3-yl)amino)-2-oxoacetyl)-1H-pyrrole-3-carboxamide] | – | > 8.00 | – | 7.30 to 8.00 | 73 | 47 | – | –
Cc1c(C(=O)Nc2ccc(F)c(C#N)c2)c(C)n(C)c1C(=O)C(=O)N[C@H](C)C(F)(F)F [Example 11] | > 100000 | > 8.00 | 7.5 (≈ 3.29 µg/mL) | > 8.00 | – | 56.8 | 47.7 | > 100000
Cc1c(C(=O)Nc2ccc(F)c(C#N)c2)c(C)n(C)c1C(=O)C(=O)N[C@@H]1CCOC1 [Example 21] | > 100000 | 7.00 to 7.30 | – | 7.30 to 8.00 | – | – | – | > 100000
C#CCNC(=O)C(=O)c1c(C)c(C(=O)Nc2ccc(F)c(C#N)c2)c(C)n1C [Example 1, N-(3-cyano-4-fluorophenyl)-1,2,4-trimethyl-5-(2-oxo-2-(prop-2-yn-1-ylamino)acetyl)-1H-pyrrole-3-carboxamide] | > 100000 | 7.30 to 8.00 | – | 7.30 to 8.00 | 69 | 44 | – | > 100000
Cc1c(C(=O)Nc2ccc(F)c(C#N)c2)c(C)n(C)c1C(=O)C(=O)NC1(C)CCOC1 (centres unmarked) [Example 23] | > 100000 | > 8.00 | – | > 8.00 | – | – | – | > 100000
Cc1c(C(=O)Nc2ccc(F)c(C#N)c2)c(Cl)n(C)c1C(=O)C(=O)N[C@H](C)C(F)(F)F [Example 30, (R)-2-chloro-N-(3-cyano-4-fluorophenyl)-1,4-dimethyl-5-(2-oxo-2-((1,1,1-trifluoroprop-2-yl)amino)acetyl)-1H-pyrrole-3-carboxamide] | > 100000 | > 8.00 | – | 7.30 to 8.00 | – | – | – | > 100000
Cc1c(C(=O)Nc2ccc(F)c(C#N)c2)c(C)n(C)c1C(=O)C(=O)NC12CC(C1)C2 [Example 2, 5-(2-(Bicyclo[1.1.1]pentan-1-ylamino)-2-oxoacetyl)-N-(3-cyano-4-fluorophenyl)-1,2,4-trimethyl-1H-pyrrole-3-carboxamide] | > 100000 | > 8.00 | 22.1 (≈ 9.03 µg/mL) | > 8.00 | – | – | – | –
Cc1c(C(=O)Nc2ccc(F)c(N)c2)c(C)n(C)c1C(=O)C(=O)N[C@@H](C)C(F)(F)F [Example 42, (S)—N-(3-amino-4-fluorophenyl)-1,2,4-trimethyl-5-(2-oxo-2-((1,1,1-trifluoroprop-2-yl)amino)acetyl)-1H-pyrrole-3-carboxamide] | – | > 8.00 | – | 7.30 to 8.00 | 102 | 85.3 | 61.9 | > 100000
